Measurements reported in US20080075628A1, “STERILIZED MINOCYCLINE AND RIFAMPIN-CONTAINING MEDICAL DEVICE” (MEDTRONIC, INC., priority 2006, published 2008).
Where “and” joins values, the source holds several entries; their conditions need not be identical. Identical values can stand only once. Like-named read-outs stand apart in the source and are kept apart here.

Details: for Recoverable rifampin after sterilization, Post EtO % / Recoverable rifampin after sterilization, Post e-beam % / Recoverable rifampin after sterilization, Post gamma % / Recoverable rifampin after sterilization, Post Steam %: relative to pre-sterilization (100%)
Method: Materials and Methods: Minocycline and rifampin were incorporated into discs, sheet stock and silicone boots and subjected to Steam, EtO, gamma radiation and e-beam sterilization as follows:
Each boot was cut into pieces (24) with scissors. The pieces were extracted together in a 60-125 ml jar w/top. All the pieces were placed in jar, and 4:1 THF/ethanol (50 mL for thick boots; 15 mL for thin boots) was added. The pieces were allowed to swell, and the drug is extracted for 1 hour (1st extraction). The extract was then collected and transferred to a 25-100 mL volumetric flask. A second 4:1 THF/ethanol (50 mL for thick boots w/holes; 10 mL for thin boots with holes) extraction was added to the jar, and the transfer pipette was rinsed with this second extract and discarded. The pieces were allowed to swell, and the drug is extracted for 1 hour (2nd extraction). The extract was then collected and transferred to the 25-100 mL volumetric flask containing the first extract. A small amount of extra solvent was needed to make up to volume due to solvent lost to evaporation and polymer swell. This amount also served as a final rinse of both the polymer and the transfer pipette.
Extraction Process—Sheet Stock
Discs was cut from the sheet stock with a die press. The discs were extracted separate in a 1 oz jar w/top. 4:1 THF/ethanol (5 mL) was added. The pieces were allowed to swell, and the drug is extracted for 1 hour (1st extraction). The extract was then collected and transferred to a 10 mL volumetric flask. A second 4:1 THF/ethanol (5 mL) extraction was added to the jar, and the transfer pipette was rinsed with this second extract and discarded. The pieces were allowed to swell, and the drug is extracted for 1 hour. (2nd extraction). The extract was then collected and transferred to the 10 mL volumetric flask containing the first extract. A small amount of extra solvent was needed to make up to 10 mL due to solvent lost to evaporation and polymer swell. This amount also served as a final rinse of both the polymer and the transfer pipette.
After extraction with THF/ethanol 4:1, extract was transferred to an HPLC vial and injected directly. The following high performance liquid chromatography (HPLC) method was used:
1. Chromatographic Conditions: • Instrument: Agilent 1100 stack • Column: Prodigy analytical column (150×4.6 mm) • Detection mode: UV detection at 238 nm • Flow rate: 1.0 mL/min • Column temperature: 25° C. • Injection volume: 10 uL • Mobile phase A: 1.4 g/L dibasic sodium phosphate buffer pH 6.8 • Mobile phase B: ACN 100%

CN(C)c1ccc(O)c2c1C[C@H]1C[C@H]3[C@H](N(C)C)C(O)=C(C(N)=O)C(=O)[C@@]3(O)C(O)=C1C2=O [minocycline]
Recoverable minocycline remaining after sterilization, Post Steam %: 0%
minocycline remaining with EtO sterilization: 86.8-100%

CO[C@H]1/C=C/O[C@@]2(C)Oc3c(C)c(O)c4c(O)c(c(/C=N/N5CCN(C)CC5)c(O)c4c3C2=O)NC(=O)/C(C)=C\C=C\[C@H](C)[C@H](O)[C@@H](C)[C@@H](O)[C@@H](C)[C@H](OC(C)=O)[C@@H]1C [rifampin]
rifampin remaining with EtO sterilization: 46.0-77.5%
Recoverable rifampin after sterilization, Post EtO % (medium 4735–0.005″ Sheet stock): 46.0%
Recoverable rifampin after sterilization, Post EtO % (medium 4735–0.015″ Sheet stock): 72.0%
Recoverable rifampin after sterilization, Post EtO % (medium 4850–0.005″ Boot): 65.4%
Recoverable rifampin after sterilization, Post EtO % (medium 4850–0.005″ Sheet Stock): 74.1% and 59.1%
Recoverable rifampin after sterilization, Post EtO % (medium 4850–0.015″ Boot): 77.5%
Recoverable rifampin after sterilization, Post EtO % (medium 4850–0.015″ Sheet Stock): 71.6%
Recoverable rifampin after sterilization, Post e-beam % (e-beam, medium 4735–0.015″ Boot): 90.2%
Recoverable rifampin after sterilization, Post e-beam % (e-beam, medium 4735–0.015″ Sheet stock): 95.1% and 92.4%
incorporated rifampin recovered after e-beam sterilization (e-beam, sheet stock, range): 92.4-95.1%
incorporated rifampin recovered after ethylene oxide sterilization (ethylene oxide, sheet stock incorporating minocycline and rifampin, range over the media tested): 46.0-74.1%
Recoverable rifampin after sterilization, Post gamma % (gamma radiation, medium 4735–0.005″ Sheet stock): 81.4%
Recoverable rifampin after sterilization, Post gamma % (gamma radiation, medium 4735–0.015″ Sheet stock): 82.8% and 88.6%
Recoverable rifampin after sterilization, Post gamma % (gamma radiation, medium 4850–0.005″ Sheet Stock): 71.5%
Recoverable rifampin after sterilization, Post gamma % (gamma radiation, medium 4850–0.015″ Sheet Stock): 78.4%
incorporated rifampin recovered after gamma radiation (gamma radiation, sheet stock, range over the media tested): 75.1-88.6%
Recoverable rifampin after sterilization, Post Steam % (steam sterilization, medium 4735–0.015″ Sheet stock): 34.3%
Recoverable rifampin after sterilization, Post Steam % (steam sterilization, medium 4850–0.005″ Sheet Stock): 19.5%
Recoverable rifampin after sterilization, Post Steam % (steam sterilization, medium 4850–0.015″ Sheet Stock): 28.3%
rifampin recoverable after steam sterilization (steam sterilization, silicone sheet stock, range over the media tested): 19.5 to 34.3%
